{"source": "patent US12582641B2", "about": "“Sulfur-containing compound based on glutarimide skeleton and application thereof” (SHANGHAITECH UNIVERSITY, priority 2019, dated 2026)"}
{"test_system": "MM.1S cells", "assay": "Proliferation inhibition (IC50) in MM.1S cells, cell viability assay", "conditions": "Homo sapiens, MM1.S, 72 h, read-out: IC50 (nM), proliferation inhibitory activity of MM.1S cells (half inhibitory concentration)", "units": {"IC50": "nM"}, "description": "MM.1S (B lymphoblast) was purchased from ATCC. Complete medium was RPMI1640 supplemented with 10% FBS and 1% Penicillin-Streptomycin. The cells used were identified as correct cells by STR cells, and were negative for mycoplasma through routine inspections.\nIC50 values of the compounds of the present disclosure were measured using Cell Titer Blue, Cell Titer GLO, or WST reagent from Promega Company. Assay details are as follows: Cells were seeded in 100 μL RPMI1640 complete medium containing serum at a density of 15,000 cells/well. After 24 h, the inoculated cells were treated with diluted commercial inhibitor and the compounds of the present disclosure to be tested after serial dilution. After the cells were treated with the compounds of the present disclosure to be tested for 72 h, cell viability was determined after adding the cell viability detection kit listed above according to the reagent operating instructions. The negative control was DMSO, and the positive control was a commercial inhibitor, both of which were used to treat the cells through the same method as that of the compounds of the present disclosure. The growth inhibition of the compounds of the present disclosure on cells was plotted by Prism Graphpad software, and the IC50 values of the compounds of the present disclosure were calculated therefrom.\nWe tested the activities of the compounds of the present invention in MM.1S cell (which overexpressed IKZF1/3 and is highly sensitive to immunomodulatory drugs) through a dose-dependent manner. The cells were treated with the compounds of the present invention at 10 different successively decreasing concentrations (starting at the highest concentration of 10 μM; 5-fold serial dilutions) for 72 h, and then the cell viability determination was performed in accordance with CCK-8 reagent operating instructions. The experiment was repeated more than three times."}
{"smiles": "CCCCCCCCSc1cccc2c1CN(C1CCC(=O)NC1=O)C2=O", "note": "(stereo not shown) [SIAIS1216025, 3-(4-(octylthio)-1-oxoisoindolin-2-yl)piperidine-2,6-dione]", "IC50": "2.1 ± 0.67"}
{"smiles": "O=C1CCC(N2Cc3c(SCCCCCCCN4CCCCCCC4)cccc3C2=O)C(=O)N1", "note": "(stereo not shown) [SIAIS1220193, 3-(4-((7-(azocan-1-yl)heptyl)thio)-1-oxoisoindolin-2-yl)piperidine-2,6-dione]", "IC50": "0.03 ± 0.01"}
{"smiles": "O=C1CCC(N2Cc3c(SCc4nc(CN5CCOCC5)cs4)cccc3C2=O)C(=O)N1", "note": "(stereo not shown) [SIAIS313169, 3-(4-(((4-(morpholinomethyl)thiazol-2-yl)methyl)thio)-1-oxoisoindolin-2-yl)piperidine-2,6-dione]", "IC50": "5.03 ± 2.13"}
{"smiles": "CC1(C)CCN(CCCCCCCSc2cccc3c2CN(C2CCC(=O)NC2=O)C3=O)CC1", "note": "(stereo not shown) [SIAIS1221027, 3-(4-((7-(4,4-dimethylpiperidin-1-yl)heptyl)thio)-1-oxoisoindolin-2-yl)piperidine-2,6-dione]", "IC50": "0.038 ± 0.006"}
{"smiles": "O=C1CCC(N2Cc3c(SCc4ccc(CCN5CCSCC5)cc4)cccc3C2=O)C(=O)N1", "note": "(stereo not shown) [SIAIS1227051, 3-(1-oxo-4-((4-(2-thiomorpholinoethyl)benzyl)thio)isoindolin-2-yl)piperidine-2,6-dione]", "IC50": "0.004 ± 0.002"}
{"smiles": "O=C1CCC(N2Cc3c(SCCCCCCC(=O)NC45CC6CC(CC(C6)C4)C5)cccc3C2=O)C(=O)N1", "note": "(stereo not shown) [SIAIS1220195, N-(adamantan-1-yl)-7-((2-(2,6-dioxopiperidin-3-yl)-1-oxoisoindolin-4-yl)thio)heptanamide]", "IC50": 0.048}
{"smiles": "O=C1CCC(N2Cc3c(SCCCCCCCNCC4CCCCC4)cccc3C2=O)C(=O)N1", "note": "(stereo not shown) [SIAIS1222199, 3-(4-((7-((cyclohexylmethyl)amino)heptyl)thio)-1-oxoisoindolin-2-yl)piperidine-2,6-dione]", "IC50": 0.062}
{"smiles": "O=C1CCC(N2Cc3c(SCCCCCCCCCCN4CCOCC4)cccc3C2=O)C(=O)N1", "note": "(stereo not shown) [SIAIS1220023, 3-(4-((10-morpholinodecyl)thio)-1-oxoisoindolin-2-yl)piperidine-2,6-dione]", "IC50": "0.46 ± 0.19"}
{"smiles": "CN(C)CCCCCSc1cccc2c1CN(C1CCC(=O)NC1=O)C2=O", "note": "(stereo not shown) [SIAIS1216089, 3-(4-((5-(dimethylamino)pentyl)thio)-1-oxoisoindolin-2-yl)piperidine-2,6-dione]", "IC50": "2.83 ± 0.76"}
{"smiles": "O=C1CCC(N2Cc3c(SCCCCCCCCC[S+]([O-])CCCC(F)(F)C(F)(F)F)cccc3C2=O)C(=O)N1", "note": "(stereo not shown) [SIAIS1220145, 3-(1-oxo-4-((9-((4,4,5,5,5-pentafluoropentyl)sulfinyl)nonyl)thio)isoindolin-2-yl)piperidine-2,6-dione]", "IC50": 4.73}
{"smiles": "O=C1CCC(N2Cc3c(SCc4ccc(CCN5CCOCC5)cc4)cccc3C2=O)C(=O)N1", "note": "(stereo not shown) [SIAIS1227049, 3-(4-((4-(2-morpholinoethyl)benzyl)thio)-1-oxoisoindolin-2-yl)piperidine-2,6-dione]", "IC50": "0.1 ± 0.05"}
{"smiles": "O=C1CCC(N2Cc3c(SCCCCCCCCN4CCCCC4=O)cccc3C2=O)C(=O)N1", "note": "(stereo not shown) [SIAIS264019, 3-(1-oxo-4-((8-(2-oxopiperidin-1-yl)octyl)thio)isoindolin-2-yl)piperidine-2,6-dione]", "IC50": 0.13}
{"smiles": "O=C1CCC(N2C(=O)c3cccc(SCc4ccc(CCCNC5CCCCC5)cc4)c3C2=O)C(=O)N1", "note": "(stereo not shown) [SIAIS1227087, 4-((4-(3-(cyclohexylamino)propyl)benzyl)thio)-2-(2,6-dioxopiperidin-3-yl)isoindoline-1,3-dione]", "IC50": 0.283}
{"smiles": "O=C1CCC(N2Cc3c(SCCCCCCNC4C5CC6CC(C5)CC4C6)cccc3C2=O)C(=O)N1", "note": "(stereo not shown) [SIAIS1220179, 3-(4-((6-((adamantan-2-yl)amino)hexyl)thio)-1-oxoisoindolin-2-yl)piperidine-2,6-dione]", "IC50": "0.036 ± 0.01"}
{"smiles": "O=C1CCC(N2Cc3c(SCc4ccc(CN5CCCCCCC5)cc4)cccc3C2=O)C(=O)N1", "note": "(stereo not shown) [SIAIS1227109, 3-(4-((4-(azocan-1-ylmethyl)benzyl)thio)-1-oxoisoindolin-2-yl)piperidine-2,6-dione]", "IC50": "0.03 ± 0.004"}
{"smiles": "O=C1CCC(N2C(=O)c3cccc(SCCCCCCCN4CCCCC4)c3C2=O)C(=O)N1", "note": "(stereo not shown) [SIAIS1221033, 2-(2,6-dioxopiperidin-3-yl)-4-((7-(piperidin-1-yl)heptyl)thio)isoindoline-1,3-dione]", "IC50": 1.62}
{"smiles": "O=C1CCC(N2Cc3c(SCc4ccc(CN5C[C@H]6CCCC[C@H]6C5)cc4)cccc3C2=O)C(=O)N1", "note": "(stereo partly drawn) [SIAIS1227171, 3-(4-((4-(((3aR,7aS)-octahydro-2H-isoindol-2-yl)methyl)benzyl)thio)-1-oxoisoindolin-2-yl)piperidine-2,6-dione]", "IC50": 0.021}
{"smiles": "O=C1CCC(N2Cc3c(SCCCc4ccc(CN5CCCCC5)cc4)cccc3C2=O)C(=O)N1", "note": "(stereo not shown) [SIAIS1227035, 3-(1-oxo-4-((3-(4-(piperidin-1-ylmethyl)phenyl)propyl)thio)isoindolin-2-yl)piperidine-2,6-dione]", "IC50": "0.14 ± 0.04"}
{"smiles": "O=C1CCC(N2Cc3c(SCCCCCCN4CCOCC4)cccc3C2=O)C(=O)N1", "note": "(stereo not shown) [SIAIS1220027, 3-(4-((6-morpholinohexyl)thio)-1-oxoisoindolin-2-yl)piperidine-2,6-dione]", "IC50": 0.7}
{"smiles": "O=C1CCC(N2Cc3c(SCCCCCCNC45CC6CC(CC(C6)C4)C5)cccc3C2=O)C(=O)N1", "note": "(stereo not shown) [SIAIS1220177, 3-(4-((6-((adamantan-1-yl)amino)hexyl)thio)-1-oxoisoindolin-2-yl)piperidine-2,6-dione]", "IC50": "0.041 ± 0.018"}
{"smiles": "CCN(CC)Cc1ccc(CSc2cccc3c2CN(C2CCC(=O)NC2=O)C3=O)cc1", "note": "(stereo not shown) [SIAIS1227055, 3-(4-((4-((diethylamino)methyl)benzyl)thio)-1-oxoisoindolin-2-yl)piperidine-2,6-dione]", "IC50": 0.285}
{"smiles": "CC1CC(C)CN(CCc2ccc(CSc3cccc4c3CN(C3CCC(=O)NC3=O)C4=O)cc2)C1", "note": "(stereo not shown) [SIAIS1227165, 3-(4-((4-(2-(3,5-dimethylpiperidin-1-yl)ethyl)benzyl)thio)-1-oxoisoindolin-2-yl)piperidine-2,6-dione]", "IC50": 0.023}
{"smiles": "O=C1CCC(N2Cc3c(SCCCCCCCOC4C5CC6CC(C5)CC4C6)cccc3C2=O)C(=O)N1", "note": "(stereo not shown) [SIAIS269159, 3-(4-((7-(adamantan-2-yloxy)heptyl)thio)-1-oxoisoindolin-2-yl)piperidine-2,6-dione]", "IC50": 0.068}
{"smiles": "O=C1CCC(N2Cc3c(SCCCCCO)cccc3C2=O)C(=O)N1", "note": "(stereo not shown) [SIAIS1220069, 3-(4-((5-hydroxypentyl)thio)-1-oxoisoindolin-2-yl)piperidine-2,6-dione]", "IC50": 3.21}
{"smiles": "O=C1CCC(N2C(=O)c3cccc(SCCCc4ccc(CNC56CC7CC(CC(C7)C5)C6)cc4)c3C2=O)C(=O)N1", "note": "(stereo not shown) [SIAIS1227041, 4-((3-(4-(((adamantan-1-yl)amino)methyl)phenyl)propyl)thio)-2-(2,6-dioxopiperidin-3-yl)isoindoline-1,3-dione]", "IC50": 0.095}
{"smiles": "O=C1CCC(N2Cc3c(SCCCc4ccc(CN5CCOCC5)cc4)cccc3C2=O)C(=O)N1", "note": "(stereo not shown) [SIAIS1227075, 3-(4-((3-(4-(morpholinomethyl)phenyl)propyl)thio)-1-oxoisoindolin-2-yl)piperidine-2,6-dione]", "IC50": 0.499}
{"smiles": "C[C@@H](NCc1ccc(CSc2cccc3c2CN(C2CCC(=O)NC2=O)C3=O)cc1)C1CC1", "note": "(stereo partly drawn) [SIAIS1227173, 3-(4-((4-((((R)-1-cyclopropylethyl)amino)methyl)benzyl)thio)-1-oxoisoindolin-2-yl)piperidine-2,6-dione]", "IC50": 0.095}
{"smiles": "CC(=O)NCCCCCSc1cccc2c1CN(C1CCC(=O)NC1=O)C2=O", "note": "(stereo not shown) [SIAIS1216095, N-(5-((2-(2,6-dioxopiperidin-3-yl)-1-oxoisoindolin-4-yl)thio)pentyl)acetamide]", "IC50": "1.53 ± 0.4"}
